“Also recorded” adds a separate entry of the source. Read-outs that look alike come from different tables or passages of the source.

One data set concerns HIV. As to conditions: Maag et al (29), O-Yang et al (32); cited from earlier work.
In data set [1] the test system is mtDNA content of CEM cells. Nature of the data set: Mitochondrial DNA content in CEM cells (Southern blot). The format is cell-based. The following applies: for IC50: four days, read-out: Mitochondrial DNA Content ID50. The procedure: Mitochondrial DNA: The effect of nucleoside analogs on mtDNA content was assessed as described previously (2). […] Cells treated with drugs at various concentrations either as single agents or in combination were grown for four days. Cells were then harvested, treated with proteinase K and DNase free RNase. Extracts were applied to nylon membranes and hybridized with an mtDNA probe. After stripping the membrane the load was normalized by rehybridizing the membrane with an Alu probe. Blots were quantitated with a Molecular Dynamics personal densitometer SI with ImageQuaNT analysis software.

A further data set relates to H-9 cells. Put plainly: Toxicity in H-9 cells alone and in combination (Coulter Counter). As to conditions: for Percent of Untreated Controls: H-9 cells, 48 h. It counts as cell-based. An excerpt:
(§1) The basic procedures are similar.

Data set [2] concerns the target T1, thymidine kinase (TK-1) (Homo sapiens, UniProt P04183).
T1 sequence (P04183 1-234): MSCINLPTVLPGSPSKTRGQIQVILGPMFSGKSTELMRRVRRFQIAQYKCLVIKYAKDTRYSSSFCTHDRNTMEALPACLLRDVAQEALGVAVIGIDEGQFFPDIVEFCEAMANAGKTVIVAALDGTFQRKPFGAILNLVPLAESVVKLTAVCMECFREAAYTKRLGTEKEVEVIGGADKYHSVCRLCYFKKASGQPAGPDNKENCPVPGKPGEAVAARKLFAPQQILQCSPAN
Nature of the data set: Monophosphorylation of analogs by thymidine kinase. The format is biochemical. The following applies: for Relative Vmax: 250 μM dThd or analog, 2.4 mM ATP, 0.07 unit TK-1, 37° C., 285 min, dThd = 100. Further details: phosphorylated by thymidine kinase (TK-1) from CEM cells; endogenous in cells. The procedure: Monophosphorylation of Analogs by Thymidine Kinase: All the analogs were tested for their ability to be phosphorylated by thymidine kinase (TK-1) from CEM cells. This enzyme was purified by an affinity column technique developed in this laboratory (7). […] At the end of the incubation time the reaction was stopped by the addition of 3 parts cold HPLC grade methanol. After incubating on ice for at least 10 min. the methanol insoluble material is precipitated by centrifugation and the methanol soluble supernatants were placed into clean microfuge tubes. These samples were brought to dryness in a Speedvac Centrifuge. The samples were dissolved in water and separated on a Shimatzu HPLC model SCL 10Avp using a gradient of water to 300 mM potassium phosphate and a Whatman 10/25 particle SAX column. Km and relative Vmax studies were done in a similar fashion, using the same mixture and different amounts of substrate and enzyme.

A further data set concerns MT-2 cells. Nature of the data set: Cellular toxicity, MT-2 cell growth. The format is cell-based. The following applies: for IC50: Homo sapiens, MT2, MT-2 cells, read-out: ID50: concentration required to inhibit MT-2 cell growth by 50%.
Text: as §1

The next data set in a line: Acid stability study. The format is physicochemical. As to conditions: 1N HCl, pH 1, 37° C., 2.5 h, HPLC. The procedure: Acid stability studies: Nucleoside samples were mixed with 1N HCl and incubated at 37° C. for 2.5 h. Then the samples were examined by HPLC using a Bechman ODS column employing a gradient of water to 80% methanol.
The subject of data set [3] is HIV-1 strain IIIB. Nature of the data set: Antiviral activity in MT-2 cells infected with HIV-1 strain IIIB (MTT). The format is cell-based. The procedure: Determination of antiviral activity: Compounds were tested in MT-2 cells infected with HIV-1 strain IIIB essentially as described previously (31). […]. Calculations of the percent protection and isobologram combination studies are described (12).

Data set [4] addresses T2, thymidine phosphorylase (TP) (Homo sapiens, UniProt P19971).
T2 construct: using a partially purified prepartion of human liver extract (28) as a source of the thymidine phosphorylase (TP); from tissue; host or cells: human liver extract, partially purified
T2 sequence (P19971 11-482): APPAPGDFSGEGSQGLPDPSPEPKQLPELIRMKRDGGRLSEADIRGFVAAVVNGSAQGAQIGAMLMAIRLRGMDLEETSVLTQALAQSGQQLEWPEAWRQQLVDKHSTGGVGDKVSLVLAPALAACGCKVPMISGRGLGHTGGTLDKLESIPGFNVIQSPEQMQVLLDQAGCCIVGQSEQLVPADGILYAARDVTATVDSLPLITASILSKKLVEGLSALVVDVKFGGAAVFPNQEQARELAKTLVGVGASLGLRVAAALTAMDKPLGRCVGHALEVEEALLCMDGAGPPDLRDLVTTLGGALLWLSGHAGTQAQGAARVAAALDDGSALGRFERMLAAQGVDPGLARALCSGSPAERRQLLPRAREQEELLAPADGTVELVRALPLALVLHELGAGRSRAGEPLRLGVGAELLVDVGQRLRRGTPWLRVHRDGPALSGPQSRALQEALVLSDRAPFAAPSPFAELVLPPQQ
Put plainly: Thymidine phosphorylase assay. The format is in vitro ADME. The following applies: partially purified TP from human liver. The procedure:
Thymidine Phosphorylase Assays: Nucleoside analogs (100 μM) were incubated in 75 mM potassium phosphate buffer pH 7.3 at 37° C. using a partially purified prepartion of human liver extract (28) as a source of the thymidine phosphorylase (TP). After incubation, the reaction was stopped by the addition of trichloroacetic acid to a final concentration of 15%. The samples were then incubated on ice. After the acid insoluble components were removed by centrifugation, the supernatant was neutralized by two extractions with one half volume of trioctylamine/freon (45:55). The aqueous supernatants were examined by HPLC using the Beckman ODS column method, as described in Acid Stability Studies.

Data set [5] has as its target T1, thymidine kinase (TK-1). Nature of the data set: Thymidine kinase assay with added nucleoside ([14C]-dThd to dTMP). The following applies: [14C]-dThd 25 μM, added nucleoside 250 μM; compared to reactions with no additions.
The test system of a further data set is CEM cells. Nature of the data set: Cellular toxicity in CEM cells (cell counts). As to conditions: for IC50: Homo sapiens, CCRF-CEM, 96 h, read-out: Cellular ID50.
The subject of data set [6] is HIV-1 strain IIIB. As to conditions: MT-2 cells; EC50 reported previously (17); read-out: EC50: effective concentration required to achieve 50% protection from HIV in MT-2 cells; cited from earlier work.
The test system of data set [7] is CEM cellular extract supplemented with partially purified TK-1 and recombinant human dTMP kinase. Put plainly: Phosphorylation to triphosphate in CEM cellular extract with TK-1 and dTMP kinase. As to conditions: unpublished results. It counts as biochemical.
Substrate in data set [8]: C#C[C@@]1(CO)C=C[C@H](n2cc(C)c(=O)[nH]c2=O)O1
Put plainly: Monophosphorylation of analogs by thymidine kinase. The format is biochemical. As to conditions: other: phosphorylation by human cytoplasmic thymidine kinase; pH 7.5.

Substrate in data set [9]: Cc1cn([C@H]2C=C[C@@H](CO)O2)c(=O)[nH]c1=O
Put plainly: purified protein, by the assay type. The following applies: other: phosphorylation by human cytoplasmic thymidine kinase; pH 7.5; 37.0 °C.

Turning to `Cc1cn([C@H]2C=C[C@](CO)(N=[N+]=[N-])O2)c(=O)[nH]c1=O` [4′-azido D4T], the “Anti-HIV activity as described by others” value in the data set on HIV is “inactive against HIV at non-toxic levels”.

Turning to `C#C[C@@]1(CO)C=C[C@H](n2cc(C)c(=O)[nH]c2=O)O1` [4′-ethynyl D4T, 2′,3′-didehydro-3′-deoxy-4′-ethynylthymidine], the IC50 in [1] (Homo sapiens, CCRF-CEM, 96 h) is > 100 µM; in [1], 100 µM; in the data set with MT-2 cells, > 256 µM; in the data set on CEM cells it was > 100 µM. In addition, the “Mitochondrial DNA content, percentage of untreated CEM control cells” value in [1] (at 100 μM) is 94 ± 4%. In addition, the “Toxic interaction on cell growth in combination with 3TC and LFd4C” value in the data set with H-9 cells (H9 cells, 48 h assay) is on record as “no significant increase in toxic interactions”. The “Percent of Untreated Controls” value in the data set with H-9 cells (25 μM 4′-ethynyl D4T plus 5 μM 3TC) amounted to 98 ± 2%; in the data set on H-9 cells (25 μM 4′-ethynyl D4T plus 5 μM LFd4C), 62 ± 3%; with H-9 cells (25 μM 4′-ethynyl D4T plus 10 μM LFd4C), 58 ± 4%; in the data set with H-9 cells (25 μM 4′-ethynyl D4T plus 20 μM 3TC), 88 ± 3%; in the data set on H-9 cells (25 μM 4′-ethynyl D4T plus 100 μM 3TC), 85 ± 3%; with H-9 cells (25 μM 4′-ethynyl D4T, no additive) it was 97 ± 7%. Besides, the “Percent of Untreated Controls” value with H-9 cells (50 μM 4′-ethynyl D4T plus 5 μM 3TC) is 99 ± 10%; in the data set with H-9 cells (50 μM 4′-ethynyl D4T plus 5 μM LFd4C), 72 ± 5%; with H-9 cells (50 μM 4′-ethynyl D4T plus 10 μM LFd4C) it was 64 ± 5%; in the data set with H-9 cells (50 μM 4′-ethynyl D4T plus 20 μM 3TC) it was 87 ± 6%; in the data set with H-9 cells (50 μM 4′-ethynyl D4T plus 100 μM 3TC), 84 ± 6%; in the data set on H-9 cells (50 μM 4′-ethynyl D4T, no additive), 102 ± 6%. For the same molecule, the “Relative Vmax” value on thymidine kinase (TK-1) [2] was 3.8 ± 0.8. The “Rate of phosphorylation by TK-1, in words” value at thymidine kinase (TK-1) [2] (purified human TK-1) is “superior to D4T; also recorded: twice as fast as D4T”. Besides, in the data set on MT-2 cells (MT-2/IIIB system), the “Toxicity compared with D4T” value is recorded as “less toxic than the parental compound D4T”. The “Stability at pH 1” value in “Acid stability study” is on record as “No detectable breakdown”. For the same molecule, the EC50 in the data set on HIV-1 strain IIIB [3] (Human immunodeficiency virus 1, MT2, MT-2/HIV IIIB system, FIG. 10, read-out: EC50 for single agents (isobologram study)) is 0.5 µM; in the data set on HIV-1 strain IIIB [6], 0.25 ± 0.14 µM. Further, the “Anti-HIV activity compared with D4T” value with HIV-1 strain IIIB [3] (MT-2/IIIB anti HIV-1 system, FIG. 8) was “more effective against HIV”. For the same molecule, the “Effect of addition of dCyd on the antiviral activity” value in the data set on HIV-1 strain IIIB [3] (dCyd 10 μM in the presence of THU 5 μM, FIG. 9) was “no significant effect”. In addition, the “Effect of addition of dThd on the antiviral activity” value in the data set with HIV-1 strain IIIB [3] (dThd 10 μM and 1 μM added to standard antiviral assay, FIG. 9) is on record as “decreased the antiviral effect”. In addition, the “Antiviral interaction in combination (isobologram)” value with HIV-1 strain IIIB [3] (in combination with 3TC) is listed as “synergistic”; in the data set on HIV-1 strain IIIB [3] (in combination with AZT (data not shown)), “only additive”; in the data set with HIV-1 strain IIIB [3] (in combination with LFd4C), “synergistic”; with HIV-1 strain IIIB [3] (in combination with ddI (data not shown)), “only additive”. The “Break down by thymidine phosphorylase” value in data set [4] (100 μM nucleoside, 37° C., FIG. 11) is “below the detection level”. Also, the “Percent of Activity” value at thymidine kinase (TK-1) [5] was 83.9 ± 6.1%. Moreover, in the data set on CEM cells (CEM cells, at 100 μM), the “Cell count, percentage of untreated CEM control cells” value was 77 ± 16%.

Regarding `Cc1cn([C@H]2C=C[C@@H](CO)O2)c(=O)[nH]c1=O` [D4T, 2′,3′-Didehydro-3′-deoxythymidine, reference compound], the IC50 in data set [1] (Homo sapiens, CCRF-CEM, 96 h) turned out to be 9.3 ± 1.4 µM; in the data set on MT-2 cells, 98 ± 10.8 µM; in the data set with CEM cells it was 60 ± 18 µM. Also, the “Relative Vmax” value on thymidine kinase (TK-1) [2] came to 2.1 ± 0.7. Further, the “Rate of conversion to the monophosphate form” value on thymidine kinase (TK-1) [2] (purified human TK-1) is on record as “approximately 2% of dThd”. Moreover, in “Acid stability study”, the “Stability at pH 1” value is listed as “No detectable breakdown”. Further, the EC50 in the data set on HIV-1 strain IIIB [3] (Human immunodeficiency virus 1, IIIB, MT2, read-out: EC50: effective concentration required to achieve 50% protection from HIV in MT-2 cells) is 1.3 ± 0.4 µM; in the data set with HIV-1 strain IIIB [3] (Human immunodeficiency virus 1, IIIB, MT2, read-out: EC50 for single agents (isobologram study)) it was 1.4 µM. For the same molecule, the “Phosphorylation to the triphosphate metabolite” value in data set [7] is on record as “more efficiently phosphorylated to the triphosphate metabolite than 4′-ethynyl D4T”. Also, the “Break down by thymidine phosphorylase, times slower than dThd” value in [4] is reported as “at least 10 times”. Moreover, on thymidine kinase (TK-1) [5], the “Percent of Activity” value came out at 106.3 ± 7.7%.

B1: thymidine kinase (TK-1) (Homo sapiens) (protein)
chain: T1 sequence (P04183 1-234)
notes: phosphorylated by thymidine kinase (TK-1) from CEM cells; endogenous in cells
A word on the Km: it is the concentration of substrate that gives half-maximal velocity. For the molecule B1, the Km stood at 52 µM in data set [8] and 133 µM in data set [9].

The values above are taken from patent US7589078B2, “Anti-viral nucleoside analogs and methods for treating viral infections, especially HIV infections” (Yale University, priority 2003, dated 2009).
